Assay results published in patent US20220362386A1, “LIQUID COMPOSITIONS COMPRISING A LEVODOPA AMINO ACID CONJUGATE AND USES THEREOF” (NeuroDerm, Ltd., priority 2019, published 2022).
Counter-ions that a name gives are not always drawn. Like-named read-outs stand apart in the source and are kept apart here. Non-standard residues stand in square brackets, D forms with d. Residues, ends and D or L forms follow the SMILES beside them. Dopa = N[C@@H](Cc1ccc(O)c(O)c1)C(=O)O

Assays:
[1] = In-vitro metabolism of LDAA compounds using liver microsomes; format: in vitro ADME, human; conditions: for half-life at 0.1 μM / microsomal CLint at 0.1 μM: both sexes, human, pooled human liver microsomes; for half-life at 0.1 μM: pH 7.4, 1.0E−07M, 0.1 mg/mL microsomal protein; for microsomal CLint at 0.1 μM: pH 7.4, calculated from the half-life; for microsomal CLint at 0.1 μM / % Compound Remaining 1st / % Compound Remaining 2nd / % Compound Remaining Mean: 1.0E−07M
Method in brief: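 Compounds at 0.1 μM were incubated at 37° C with pooled mixed-gender human liver microsomes (0.1 mg/mL protein) in phosphate buffer pH 7.4 plus an NADPH-generating system for 0–60 min. Remaining parent was quantified by HPLC-MS/MS versus time zero; t1/2 came from first-order fits, and Clint = 0.693/(t1/2×protein concentration).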

human plasma = test: Protein binding, solid phase extraction (SPE) method; format: in vitro ADME; conditions: 1.0E−05M; SPE sample preparation
Method in brief: (§1)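 Human plasma spiked with test compound at 10 μM, diluted 1:1 with 4% aqueous phosphoric acid and mixed 15 min before solid phase extraction. Mixed-mode cation exchange (MCX) sorbent used a 2% formic acid wash and 5% NH4OH/methanol elution. Anion exchange (MAX) sorbent used a 5% NH4OH wash and 2% formic acid/methanol elution.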

[2] = as above; format: in vitro ADME, human; conditions: human, human plasma, 1.0E−05M, SPE sample preparation
Method in brief: as §1

[3] = Human liver S9 stability test; format: in vitro ADME; conditions: substrate 10 μM, S9 protein 0.2 mg/mL; for Ke: slope of the percentage decrease of remaining compound, 0-60 minutes
Experimental: The stability of several LDAA compounds, in their TFA salt form, in human liver S9 was tested using commercially available liver S9. The substrate concentration was 10 μM, the S9 protein concentration was 0.2 mg/mL, and the incubation time 0, 5, 15, 30 and 60 minutes.
The results are described in Table 18, wherein the results describe the Ke, i.e., the slope of the percentage decrease of the remaining amount of the compound, measured at each of the above time points, such that the higher the Ke the faster the metabolism.

[4] = Human blood stability test; format: in vitro ADME; design: key: slope of % decrease of remaining compound over time; higher = faster metabolism; conditions: slope of the percentage decrease of remaining compound; substrate 10 μM; 0-60 minutes
Experimental: The stability of several LDAA compounds in human blood was tested. The substrate concentration was 10 μM and the incubation time 0, 5, 15, 30 and 60 minutes.
The results are described in Table 19, wherein the results describe the Ke, i.e., the slope of the percentage decrease of the remaining amount of the compound, measured at each of the above time points, such that the higher the Ke the faster the metabolism.

P-gp = test: In-vitro absorption, Caco-2 A-B permeability; format: in vitro ADME, human; conditions: human, Caco-2, pH 7.4, with verapamil 100 μM on both the A and B sides, Caco-2 A-B, in the presence of verapamil
Experimental: (§2) Conditions may be adjusted when necessary.
(§3) D denotes donor and R is receiver. […] V is the volume of the donor or receiver.
(§4) The test was performed with and without verapamil, which is a permeation inhibitor, and the results are presented in Tables 22 (without verapamil) and 34 (with verapamil).

[5] = In-vitro absorption, Caco-2 A-B permeability; format: in vitro ADME, human; conditions: human, Caco-2, pH 7.4, Caco-2 A-B, without verapamil; for Papp A→B at 60 min, 10 μM: 1.0E−05M
Experimental: as §2, §3, §4

[6] = read-out: Half-Life (minute) 1st
[7] = read-out: Half-Life (minute) 2nd
[8] = read-out: Half-Life (minute) Mean
[9] = read-out: Percent Recovery Mean

Row | SMILES | half-life at 0.1 μM [1, 6] [min] | half-life at 0.1 μM [1, 7] [min] | half-life at 0.1 μM [1, 8] [min] | microsomal CLint at 0.1 μM [1] [µL/min/mg] | % Compound Remaining 1st ([1]; incubation time 0 minutes) [%] | % Compound Remaining 2nd ([1]; incubation time 0 minutes) [%] | % Compound Remaining Mean ([1]; incubation time 0 minutes) [%] | % Compound Remaining 1st ([1]; incubation time 15 minutes) | % Compound Remaining 2nd ([1]; incubation time 15 minutes) | % Compound Remaining Mean ([1]; incubation time 15 minutes) [%] | % Compound Remaining 1st ([1]; incubation time 30 minutes) [%] | % Compound Remaining 2nd ([1]; incubation time 30 minutes) [%] | % Protein Bound 1st (human plasma) [%] | % Protein Bound 2nd (human plasma) [%] | % Protein Bound Mean (human plasma) [%] | recovery at 10 μM ([2]; read-out: % Recovery 1st) [%] | recovery at 10 μM ([2]; read-out: % Recovery 2nd) [%] | recovery at 10 μM ([2]; read-out: % Recovery Mean) [%] | Ke [3] | Ke [4] | other results
1 | N=C(N)NCCC[C@H](NC(=O)[C@@H](N)Cc1ccc(O)c(O)c1)C(=O)O [LD-Arg TFA salt, Levodopa Arginine TFA Salt] | 42.9 | 40.5 | 42 | 166 | 100 | 100 | 100 | 109.7% | 111.8% | 111 | 84.2 | 90.9 | 91.5 | 91.2 | 91 | 79 | 79 | 79 | 0.1268 | 0.0919 | % Compound Remaining Mean ([1]; incubation time 30 minutes): 88%; % Compound Remaining 1st ([1]; incubation time 45 minutes): 70%; % Compound Remaining 2nd ([1]; incubation time 45 minutes): {52.4} %; % Compound Remaining Mean ([1]; incubation time 45 minutes): 70%; % Compound Remaining 1st ([1]; incubation time 60 minutes): 37.3%; % Compound Remaining 2nd ([1]; incubation time 60 minutes): 38.6%; % Compound Remaining Mean ([1]; incubation time 60 minutes): 38%; metabolism in human liver S9 (in words) [3]: rapidly metabolized; recovery at 60 min, 10 μM (P-gp; read-out: Percent Recovery 1st): 25%; recovery at 60 min, 10 μM (P-gp; read-out: Percent Recovery 2nd): 26%; recovery at 60 min, 10 μM (P-gp; [9]): 25%; Papp A→B at 60 min, 10 μM ([5]; read-out: Permeability 1st): 0.1 ×10⁻⁶ cm/s; Papp A→B at 60 min, 10 μM ([5]; read-out: Permeability 2nd): 0.09 ×10⁻⁶ cm/s; Papp A→B at 60 min, 10 μM ([5]; read-out: Permeability Mean): < 0.1 ×10⁻⁶ cm/s; recovery at 60 min, 10 μM ([5]; read-out: Percent Recovery 1st): 26%; recovery at 60 min, 10 μM ([5]; read-out: Percent Recovery 2nd): 26%; recovery at 60 min, 10 μM [5, 9]: 26%
2 | N[C@@H](Cc1ccc(O)c(O)c1)C(=O)N[C@@H](CC(=O)O)C(=O)O [LD-Asp TFA salt, Levodopa Aspartic Acid] (H-[Dopa]-Asp-OH) |  |  |  |  |  |  |  |  |  |  |  |  | 47.8 | 34.1 | 41 | 55 | 64 | 60 | 0.0008 | 0.0014 | 
3 | NCCCC[C@H](NC(=O)[C@@H](N)Cc1ccc(O)c(O)c1)C(=O)O [LD-Lys TFA salt, Levodopa Lysine TFA Salt] (H-[Dopa]-Lys-OH) | 91.3 | 58.3 | > 60 | < 116 | 100 | 100 | 100 | {123.5% | 96.7% | 97 | 64.2 | 83.5 | 0.3 | 18.7 | 10 | 79 | 63 | 71 | 0.0788 | 0.0655 | % Compound Remaining Mean ([1]; incubation time 30 minutes): 74%; % Compound Remaining 1st ([1]; incubation time 45 minutes): 76.7%; % Compound Remaining 2nd ([1]; incubation time 45 minutes): {43.7} %; % Compound Remaining Mean ([1]; incubation time 45 minutes): 77%; % Compound Remaining 1st ([1]; incubation time 60 minutes): 59.5%; % Compound Remaining 2nd ([1]; incubation time 60 minutes): 50.4%; % Compound Remaining Mean ([1]; incubation time 60 minutes): 55%; metabolism in human liver S9 (in words) [3]: rapidly metabolized; recovery at 60 min, 10 μM (P-gp; read-out: Percent Recovery 1st): 33%; recovery at 60 min, 10 μM (P-gp; read-out: Percent Recovery 2nd): 33%; recovery at 60 min, 10 μM (P-gp; [9]): 33%; Papp A→B at 60 min, 10 μM ([5]; read-out: Permeability 1st): 0.12 ×10⁻⁶ cm/s; Papp A→B at 60 min, 10 μM ([5]; read-out: Permeability 2nd): 0.09 ×10⁻⁶ cm/s; Papp A→B at 60 min, 10 μM ([5]; read-out: Permeability Mean): < 0.1 ×10⁻⁶ cm/s; recovery at 60 min, 10 μM ([5]; read-out: Percent Recovery 1st): 21%; recovery at 60 min, 10 μM ([5]; read-out: Percent Recovery 2nd): 38%; recovery at 60 min, 10 μM [5, 9]: 30%
4 | N[C@@H](Cc1ccc(O)c(O)c1)C(=O)N[C@@H](Cc1ccc(O)cc1)C(=O)O [LD-Tyr TFA salt, Levodopa Tyrosine TFA Salt] (H-[Dopa]-Tyr-OH) | 112 | 315 | > 60 | < 116 | 100 | 100 | 100 | 90.7% | {121.6% | 91 | 102.5 | 110.1 | 11 | 32.5 | 22 | 64 | 72 | 68 | 0.0217 | 0.0426 | % Compound Remaining Mean ([1]; incubation time 30 minutes): 106%; % Compound Remaining 1st ([1]; incubation time 45 minutes): 71.4%; % Compound Remaining 2nd ([1]; incubation time 45 minutes): 104.1%; % Compound Remaining Mean ([1]; incubation time 45 minutes): 88%; % Compound Remaining 1st ([1]; incubation time 60 minutes): 70.8%; % Compound Remaining 2nd ([1]; incubation time 60 minutes): 84.5%; % Compound Remaining Mean ([1]; incubation time 60 minutes): 78%; metabolism in human liver S9 (in words) [3]: rapidly metabolized; recovery at 60 min, 10 μM (P-gp; read-out: Percent Recovery 1st): 40%; recovery at 60 min, 10 μM (P-gp; read-out: Percent Recovery 2nd): 39%; recovery at 60 min, 10 μM (P-gp; [9]): 40%; Papp A→B at 60 min, 10 μM ([5]; read-out: Permeability 1st): 0.05 ×10⁻⁶ cm/s; Papp A→B at 60 min, 10 μM ([5]; read-out: Permeability 2nd): 0.04 ×10⁻⁶ cm/s; recovery at 60 min, 10 μM ([5]; read-out: Percent Recovery 1st): 45%; recovery at 60 min, 10 μM ([5]; read-out: Percent Recovery 2nd): 39%; recovery at 60 min, 10 μM [5, 9]: 42%
